Assay results taken from ChEMBL document CHEMBL3120092, “Discovery of GS-9669, a thumb site II non-nucleoside inhibitor of NS5B for the treatment of genotype 1 chronic hepatitis C infection” (J Med Chem, 2014).
pEC50: −log10 of the molar value.

Assays:
[1] = Mean residence time in Sprague-Dawley rat at 0.5 mg/kg, iv; assay type: ADME, organism-based; parameters: dose 0.5 mg/kg, route intravenous; conditions: in vivo
[2] = Lipophilicity, log D of the compound by chromatography; assay type: physicochemical
[3] = Intrinsic cytotoxicity against human MT4 cells after 5 days by Cell Titre Glo assay; assay type: cell-based
Hepatitis C virus [4] = experiment: Antiviral activity against Hepatitis C virus H77 genotype 1a infected in human HuH7 cells assessed as plasma adjusted antiviral potency after 72 hrs by luciferase reporter gene assay; assay type: functional, organism-based, Hepacivirus hominis; conditions: genotype 1a H77, Huh-7, Plasma
Hepatitis C virus [5] = experiment: Antiviral activity against Hepatitis C virus H77 genotype 1a infected in human HuH7 cells assessed as intrinsic antiviral potency after 72 hrs by luciferase reporter gene assay; assay type: functional, organism-based, Hepacivirus hominis; conditions: genotype 1a H77, Huh-7, 72 h
[6] = Cytotoxicity against human MT4 cells after 5 days by Cell Titre Glo assay; assay type: cell-based
Hepatitis C virus [7] = experiment: Antiviral activity against Hepatitis C virus H77 genotype 1a infected in human HuH7 cells assessed as observed antiviral potency after 72 hrs by luciferase reporter gene assay; assay type: functional, organism-based, Hepacivirus hominis; conditions: genotype 1a H77, Huh-7, 72 h
[8] = Fraction unbound in cell culture medium at 2 uM at pH 7.4 by equilibrium dialysis method; assay type: ADME
Hepatitis C virus [9] = experiment: Antiviral activity against HCV genotype 1b harboring wild type NS5B polymerase infected in human HuH7-Lunet cells by luciferase reporter gene assay; assay type: functional, organism-based, Hepacivirus hominis; conditions: Huh-7
Hepatitis C virus [10] = experiment: Antiviral activity against HCV genotype 1b harboring NS5B polymerase M423T mutant infected in human HuH7-Lunet cells by luciferase reporter gene assay; assay type: functional, organism-based, Hepacivirus hominis; conditions: Huh-7
Hepatitis C virus [11] = experiment: Selectivity ratio of EC50 for HCV genotype 1b harboring NS5B polymerase M423T mutant to EC50 for HCV genotype 1b harboring wild type NS5B polymerase; assay type: functional, Hepacivirus hominis
Hepatitis C virus [12] = experiment: Antiviral activity against Hepatitis C virus Con1 genotype 1b infected in human HuH7 cells after 72 hrs by luciferase reporter gene assay; assay type: functional, organism-based, Hepacivirus hominis; conditions: isolate Con1, Huh-7, 72 h
[13] = Cytotoxicity against human HuH7 cells after 3 days by Cell Titre Glo assay; assay type: cell-based, Huh-7
[14] = Mean residence time in Sprague-Dawley rat at 1 mg/kg, iv; assay type: ADME, organism-based; parameters: dose 1 mg/kg, route intravenous; conditions: in vivo

SMILES | MRT [1] [h] | chromatographic logD [2] | CC50 at 120 h [3] [nM] | pEC50 (Hepatitis C virus [4]) | pEC50 (Hepatitis C virus [5]) | CC50 at 120 h [6] [nM] | pEC50 (Hepatitis C virus [7]) | fraction unbound at 2 µM [8] | pEC50 (Hepatitis C virus [9]) | pEC50 (Hepatitis C virus [10]) | Ratio EC50 (Hepatitis C virus [11]) | pEC50 (Hepatitis C virus [12]) | CC50 at 72 h [13] [nM] | MRT [14] [h]
C[C@@H]1CC[C@@H](C(=O)N(c2cc(C#CC(C)(C)C)sc2C(=O)O)[C@H]2CC[C@H](OC3CCOC3)CC2)[C@@H](O)C1 (stereo not given in full) | 1.9 | 2.2 | 11600 | 6.86 | 8.70 | > 20000 | – | – | – | – | – | – | – | –
CC(C)N(C(=O)[C@H]1CC[C@@H]2C[C@@H]2CC1)c1cc(C#CC(C)(C)C)sc1C(=O)O | – | – | – | – | 6.32 | > 20000 | 5.21 | 0.08 | – | – | – | – | – | –
CC(C)(C)C#Cc1cc(N(C(=O)[C@H]2CC[C@H](C)CC2)[C@H]2CC[C@](O)(CO[C@H]3CCOC3)CC2)c(C(=O)O)s1 | 3.8 | 2.4 | 8980 | 6.68 | 8.66 | > 20000 | – | – | 7.92 | 7.33 | 4 | – | – | –
CC(C)(C)C#Cc1cc(N(C(=O)[C@H]2CC[C@H](C)CC2)[C@H]2CC[C@H](OC3CCOC3)CC2)c(C(=O)O)s1 (stereo not given in full) | 3.5 | 2.3 | 3070 | 6.13 | 8.37 | > 20000 | 7.26 | – | – | – | – | – | – | –
CC(C)(C)C#Cc1cc(N(CCO)C(=O)[C@H]2CC[C@H](C)CC2)c(C(=O)O)s1 | – | – | – | – | – | > 20000 | 6.52 | – | – | – | – | 7.11 | ≥ 20000 | –
CC1CC=C(C(=O)N(c2cc(C#CC(C)(C)C)sc2C(=O)O)C(C)C)CC1 (stereo not given) | – | – | – | – | 7.19 | > 20000 | 6.11 | 0.08 | – | – | – | – | – | –
CC(C)(C)C#Cc1cc(N(C(=O)[C@H]2CC[C@H](C)CC2)[C@H]2CC[C@H](Oc3nccs3)CC2)c(C(=O)O)s1 | – | – | – | – | 8.82 | > 20000 | 7.08 | – | – | – | – | – | – | 2.8
CC(C)(C)C#Cc1cc(N(C(=O)[C@H]2CC[C@H](C)CC2)C2CCN(S(C)(=O)=O)CC2)c(C(=O)O)s1 | – | – | – | – | 8.06 | > 20000 | 7.29 | 0.17 | – | – | – | – | – | –
CC(C)(C)C#Cc1cc(N(C(=O)[C@H]2CC[C@H](C)CC2)[C@H]2CC[C@@](O)(CO[C@H]3CCOC3)CC2)c(C(=O)O)s1 | 0.2 | – | 18100 | 6.72 | 8.37 | > 20000 | – | – | – | – | – | – | – | –
CCC[C@]1(CC(=O)O)OCCc2c1[nH]c1c(C)ccc(C#N)c21 | – | – | – | – | – | > 20000 | – | – | – | – | – | – | – | –
CON=C1CCC(N(c2cc(C#CC(C)(C)C)sc2C(=O)O)C(=O)[C@H]2CC[C@H](C)CC2)CC1 (stereo not given in full) | – | – | – | – | 8.21 | > 20000 | 7.06 | 0.07 | – | – | – | – | – | –
CC(C)(C)C#Cc1cc(N(C(=O)[C@H]2CC[C@H](C)CC2)[C@H]2CC[C@H](Oc3cccnc3)CC2)c(C(=O)O)s1 | – | – | – | – | 8.44 | > 20000 | 6.89 | 0.03 | – | – | – | – | – | 3.4
CC(C)N(C(=O)C1CCCCCC1)c1cc(C#CC(C)(C)C)sc1C(=O)O | – | – | – | – | 6.65 | > 20000 | 5.69 | 0.11 | – | – | – | – | – | –
CC(C)N(C(=O)[C@H]1[C@@H]2CCCC[C@@H]21)c1cc(C#CC(C)(C)C)sc1C(=O)O | – | – | – | – | 6.69 | > 20000 | 5.33 | 0.04 | – | – | – | – | – | –
CC(C)(C)C#Cc1cc(N(C(=O)[C@H]2CC[C@H](C)CC2)[C@H]2C[C@@H](Oc3cccnc3)C2)c(C(=O)O)s1 | – | – | – | – | 8.19 | > 20000 | 6.81 | 0.04 | – | – | – | – | – | –
C[C@@H](CCO)N(c1cc(C#CC(C)(C)C)sc1C(=O)O)C(=O)[C@H]1CC[C@H](C)CC1 | – | – | – | – | 8.48 | > 20000 | 7.82 | 0.22 | – | – | – | 8.15 | ≥ 20000 | –
CC1=CC[C@H](C(=O)N(c2cc(C#CC(C)(C)C)sc2C(=O)O)C(C)C)CC1 | – | – | – | – | 8.66 | > 20000 | 7.51 | 0.07 | 8.10 | 7.40 | 5 | – | – | –
CC(C)N(c1cc(-c2ccccc2)sc1C(=O)O)C(=O)[C@H]1CC[C@H](C)CC1 | – | – | – | – | 6.77 | > 20000 | 5.68 | 0.08 | – | – | – | 6.23 | ≥ 20000 | –
CC(C)(C)C#Cc1cc(N(C(=O)[C@H]2CC[C@H](C)CC2)[C@H]2CC[C@H](Oc3ccc(=O)[nH]n3)CC2)c(C(=O)O)s1 | 1.6 | 2 | 1480 | 6.55 | 8.46 | > 20000 | 7.41 | – | – | – | – | – | – | –
